15 compounds from patent publication US7799775B2, “Pyrimidine derivatives” (ASKA Pharmaceutical Co., Ltd., priority 2004, dated 2010) can be followed below.

Series [1] has as its system rats under restraint stress. Kind of series: Measurement of defecation acceleration in rats under restraint stress. The class given is in vivo, rat. The conditions noted are these: 1 hour restraint stress, group average (Normal 1.7, Control 6.8). As to the method: (5) Measurement of Defecation Acceleration in Rats under Restraint Stress […] Feed and drinking water were left for their free ingestion until the morning of the day on which the test was given. On the day of the experiment, test compounds were orally administered and positive control solution (the used compounds were dissolved in 1N-hydrochloric acid and diluted with a suitable amount of saline) was administered intraperitoneally. Five (5) minutes thereafter, under lightly anesthetized condition, the rats were placed under restraint stress, with their upper half of the bodies including the front feet immobilized with gum tape. The restraint stress loading was conducted for an hour, and the number of excrements discharged during that period was counted. […] Those compounds which were used as the positive control chemicals used in the acceleration of defecation in rats under restraint stress are identified with the following structures.

Series [2] deals with T1, 5-HT3 receptor (Rattus norvegicus, UniProt P35563).
T1 construct: from tissue; host or cells: whole animal (SD male rats), serotonin-induced bradycardia
T1 sequence (P35563 24-483): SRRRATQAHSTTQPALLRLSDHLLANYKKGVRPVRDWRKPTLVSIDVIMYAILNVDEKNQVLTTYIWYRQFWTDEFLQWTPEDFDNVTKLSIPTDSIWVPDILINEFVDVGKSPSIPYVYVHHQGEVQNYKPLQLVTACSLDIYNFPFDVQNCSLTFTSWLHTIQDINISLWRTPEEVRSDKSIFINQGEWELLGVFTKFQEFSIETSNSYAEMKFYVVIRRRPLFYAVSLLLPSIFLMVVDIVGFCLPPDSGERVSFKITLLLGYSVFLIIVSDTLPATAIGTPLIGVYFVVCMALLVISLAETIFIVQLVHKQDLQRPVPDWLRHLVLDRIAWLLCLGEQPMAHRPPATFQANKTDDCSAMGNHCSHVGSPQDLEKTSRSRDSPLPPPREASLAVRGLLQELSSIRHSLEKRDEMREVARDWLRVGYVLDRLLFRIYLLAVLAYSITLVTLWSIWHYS
In words: Measurement of 5-HT3 receptor antagonistic action on rats (in vivo): inhibition of serotonin-induced bradycardia (BJ reflex). The note with it: anesthetized SD male rats, dose 1.0 mg/kg intravenous, serotonin 300 μg/kg 10 minutes later. As to the method:
(4) Measurement of 5-HT3 Receptor Antagonistic Action on Rats (in Vivo)
SD male rats (weighing 270-410 g) were anesthetized by peritoneal administration of 1.25 g/kg of urethane (as dissolved in distilled water), and then catheters for measuring blood pressure and heart rate were inserted into their left carotid artery and a catheter for administration of test compound was inserted into their […]. After their blood pressure and heart rate were stabilized, 300 μg/kg of 5-hydroxytryptamine creatinine sulfate (serotonin) was rapidly intravenously administered and thereby induced transient bradycardiac reaction (BC 1) was observed. When the blood pressure and heart rate were re-stabilized after the serotonic administration, the test compounds were intravenously administered to the rats. Ten minutes thereafter, 300 μg/kg of serotonin was once again rapidly intravenously administered and thereby induced transient bradycardiac reaction (BC 2) was observed. Percent inhibition of bradycardia manifestation of each test compound, i.e., BJ reflex inhibition, can be calculated according to the following expression: […]

The target in series [3] is T2, 5-HT1A receptor (Rattus norvegicus, UniProt P19327).
T2 construct: from tissue; host or cells: whole animal (SD male rats), behavioural read-out
T2 sequence (P19327 1-422): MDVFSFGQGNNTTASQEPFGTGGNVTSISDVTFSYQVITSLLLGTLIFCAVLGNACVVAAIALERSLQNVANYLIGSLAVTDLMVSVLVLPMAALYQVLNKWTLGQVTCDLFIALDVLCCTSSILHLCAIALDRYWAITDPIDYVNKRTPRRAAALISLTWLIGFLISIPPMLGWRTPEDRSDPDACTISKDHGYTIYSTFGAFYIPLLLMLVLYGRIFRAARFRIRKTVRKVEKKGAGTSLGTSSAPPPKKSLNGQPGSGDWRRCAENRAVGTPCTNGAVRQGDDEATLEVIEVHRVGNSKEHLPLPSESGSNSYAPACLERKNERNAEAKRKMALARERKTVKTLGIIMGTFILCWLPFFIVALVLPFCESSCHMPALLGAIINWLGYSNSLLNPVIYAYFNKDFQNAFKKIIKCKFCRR
Kind of series: Measurement of 5-HT1A receptor agonistic action on rats (in vivo): lower lip retraction and flat body posture. The note with it: SD male rats, 10 mg/kg intraperitoneal; maximum of group evaluation points, 4 grades 0-3, observed 5-30 min after administration. As to the method: (3) Measurement of 5-HT1A Receptor Agonistic Action on Rats (in Vivo):
Seven weeks old SD male rats were divided into 4-5 rats per group which were accustomized to the experimental environments twice. A week after the second accustomization, the rats were put into a transparent plastic case, and 10 mg/kg of a test compound (as dissolved in 1N-hydrochloric acid and diluted with suitable amount of saline) was intraperitoneally administered thereto. Immediately before the administration and 5, 10, 20 and 30 minutes after the administration, behaviors of the rats were observed as to lower lip retraction (LLP) and flat body posture (FBP). The results were evaluated in 4 grades (0: no reaction, 1: feeble reaction, 2: medium reaction, 3: maximum reaction).

Setting [4] is: 0.3 mg/kg intraperitoneal administration.
Where [5] appears, read: 1 mg/kg intraperitoneal administration.
The mark [6] stands for this setting: 3 mg/kg intraperitoneal administration.

The compound `CN1[C@@H]2CCC[C@H]1C[C@@H](NC(=O)c1nn(C)c3ccccc13)C2.Cl` [granisetron, reference compound] registered a Number of excrements in series [1] (setting [4]) of 4.3.

One may read the melting point as the temperature, or range, at which the solid turns liquid. The compound `O=c1[nH]c(CCCCN2CCN(c3ccccn3)CC2)nc2sc3c(c12)CCCC3` [Example 3-10, 2-[4-(4-pyridin-2-ylpiperazin-1-yl)butyl]-5,6,7,8-tetrahydro-3H-benzo[4,5]thieno[2,3-d]pyrimidin-4-one] yielded a melting point of 192.6 to 194.4 °C. Same read-out and setting: the figure for `Cc1sc2nc(SCCCN3CCN(c4ccccn4)CC3)n(N)c(=O)c2c1C` [Example 1-2, 3-amino-5,6-dimethyl-2-[3-(4-pyridin-2-ylpiperazin-1-yl)propylthio]-3H-thieno[2,3-d]pyrimidin-4-one] is 183.1 to 184.8 °C.

As for `CCOC(=O)c1sc2nc(SCCCN3CCN(c4ccc5ccccc5n4)CC3)[nH]c(=O)c2c1C` [Example 2-6, 5-methyl-4-oxo-2-[3-(4-quinolin-2-ylpiperazin-1-yl)propylthio]-3,4-dihydrothieno[2,3-d]pyrimidine-6-carboxylic acid ethyl ester], the melting point lay within 200.1 to 201.4 °C.

`Cc1sc2nc(SCCCN3CCN(c4ccc5ccccc5n4)CC3)[nH]c(=O)c2c1C` [Example 2-4, 5,6-dimethyl-2-[3-(4-quinolin-2-yl-piperazin-1-yl)propylthio]-3H-thieno[2,3-d]pyrimidin-4-one]: the melting point lay in the range of 224.8 to 225.9 °C. As for `CN1CCN(c2nccc3ccc(Cl)cc23)CC1` [Production Example 50, 7-chloro-1-(4-methylpiperazin-1-yl)isoquinoline], in series [2], the “BC Inhibition (%)” value was 86.8%.

As to `Cc1[nH]cnc1CN1CCc2c(c3ccccc3n2C)C1=O.Cl` [alosetron, reference compound], the Number of excrements in series [1] (setting [4]) came to 5.2; in series [1] (setting [5]), 4.1; in series [1] (setting [6]) it was 3.7. Consider `Cl.O=C1CC2(CCCC2)CC(=O)N1CCCCN1CCN(c2ncccn2)CC1` [buspirone, reference compound], for which the Number of excrements in series [1] (setting [5]) is given as 4.3.

Regarding `O=C(O)CC(O)(CC(=O)O)C(=O)O.O=C1[C@@H]2[C@H]3CC[C@H](C3)[C@@H]2C(=O)N1CCCCN1CCN(c2ncccn2)CC1` [tandospirone, reference compound], the Number of excrements was found to be 5.7 in series [1] (setting [5]), 4.3 in series [1] (setting [6]) and 3.8 in series [1] (10 mg/kg intraperitoneal administration). As for `COc1ccc2ccnc(N3CCNCC3)c2c1` [Production Example 34, 7-methoxy-1-piperazin-1-ylisoquinoline], in series [3], the “5-HT1A Receptor Agonistic Action on Rats, FBP” value was found to be 2.8 and the “5-HT1A Receptor Agonistic Action on Rats, LLR” value was 3.0. Further, the “BC Inhibition (%)” value in series [2] is given as 92.0%. With `Cc1sc2nc(SCCCN3CCN(c4nc5ccccc5s4)CC3)n(N)c(=O)c2c1C` [Example 1-6, 3-amino-2-[3-(4-benzothiazol-2-ylpiperazin-1-yl)propylthio]-5,6-dimethyl-3H-thieno[2,3-d]pyrimidin-4-one], the melting point lay within 200.5 to 201.2 °C. Consider `Cc1ccc2ccnc(N3CCNCC3)c2c1` [Production Example 46, 7-methyl-1-piperazin-1-ylisoquinoline], for which the “BC Inhibition (%)” value in series [2] is on record as 94.4%. Consider `O=c1[nH]c(SCCCN2CCN(c3ccccn3)CC2)nc2sc3c(c12)CCCC3` [Example 2-2, 2-[3-(4-pyridin-2-ylpiperazin-1-yl)propylthio]-5,6,7,8-tetrahydro-3H-benzo[4,5]thieno[2,3-d]pyrimidin-4-one], for which the melting point lay in the range of 190.2 to 191.6 °C. In series [1] (setting [5]), `Cc1nccn1C[C@H]1CCc2c(c3cccc4c3n2CCC4)C1=O` [cilansetron, reference compound] returned a Number of excrements of 4.0.

With `CCOC(=O)c1sc2nc(SCCCN3CCN(c4ccccn4)CC3)[nH]c(=O)c2c1C` [Example 2-3, 5-methyl-4-oxo-2-[3-(4-pyridin-2-ylpiperazin-1-yl)propylthio]-3,4-dihydrothieno[2,3-d]pyrimidine-6-carboxylic acid ethyl ester], the melting point lay in the range of 160.1 to 161.8 °C.
